Reference: US9233989B2, “Sila analogs of oxazolidinone derivatives and synthesis thereof” (Council of Scientific & Industrial Research, priority 2011, dated 2016)
In brackets after ≈: the same amount, converted by molar mass. Read-outs that look alike come from different tables or passages of the source.

Assays:
S.epidermidis ATCC 14990 = test: MIC by microbroth dilution method; format: cell-based
S.aureus DB00026 = test: MIC by microbroth dilution method; format: cell-based
S.epidermis St 358 = test: MIC by microbroth dilution method; format: cell-based, S. epidermidis
E.faecium 134 VRE = test: MIC by microbroth dilution method; format: cell-based
MRSA ATCC BAA 39 = test: MIC by microbroth dilution method; format: cell-based, S. aureus
MRSE ATCC 35984 = test: MIC by microbroth dilution method; format: cell-based, S. epidermidis
[1] = test system: S.aureus ATCC 13709 Smith; test: MIC by microbroth dilution method; format: cell-based
S.aureus2 (PVL + ve) = format: cell-based, S. aureus
[2] = test system: S.aureus ATCC 700699 Mu50; test: MIC by microbroth dilution method; format: cell-based
[3] = test system: S.aureus ATCC Newman 25904; test: MIC by microbroth dilution method; format: cell-based
MRSA 562 = test: MIC by microbroth dilution method; format: cell-based, S. aureus
MRSA 252 BAA 1720 = test: MIC by microbroth dilution method; format: cell-based, S. aureus
E.faecium ATCC 35667 = test: MIC by microbroth dilution method; format: cell-based
MRSA 0-2657 = test: MIC by microbroth dilution method; format: cell-based, S. aureus
E.faecalis SP 346 VRE = test: MIC by microbroth dilution method; format: cell-based
[4] = test system: S.aureus ATCC 49775 PVL + ve; format: cell-based
E.faecium 6A VRE = test: MIC by microbroth dilution method; format: cell-based
E.coli 7632 = test: MIC by microbroth dilution method; format: cell-based
[5] = test system: S.aureus 13709 LNZ mutant; format: cell-based
S.epidermidis ATCC 12228 = test: MIC by microbroth dilution method; format: cell-based
MRSA DB 00026 = test: MIC by microbroth dilution method; format: cell-based, S. aureus
E.faecium ATCC 19434 = test: MIC by microbroth dilution method; format: cell-based
MRSA ATCC 43300 = test: MIC by microbroth dilution method; format: cell-based, S. aureus
E.faecium ATCC 49224 = test: MIC by microbroth dilution method; format: cell-based
S.aureus ATCC 29213 = test: MIC by microbroth dilution method; format: cell-based
[6] = test system: Mycobacterium tuberculosis H37Rv; test: Anti-TB activity, colorimetric resazurin microtiter assay; format: cell-based; settings: for MIC: read-out: MIC, Minimum Inhibitory Concentration (90%)
E.faecalis ATCC 19433 = test: MIC by microbroth dilution method; format: cell-based
E.faecium ATCC 3567 = test: MIC by microbroth dilution method; format: cell-based
MRSE ATCC 35983 = test: MIC by microbroth dilution method; format: cell-based, S. epidermidis
[7] = test system: E.faecalis ATCC 51299(VRE&HLAR); test: MIC by microbroth dilution method; format: cell-based
E.faecium 06076 VRE = test: MIC by microbroth dilution method; format: cell-based
E.faecalis ATCC 29212 = test: MIC by microbroth dilution method; format: cell-based
[8] = Mycobacterium tuberculosis, H37RV
[9] = inhibition of Mycobacterium tuberculosis H37Rv growth, 7H9-OADC media, 37° C., visual readout

SMILES | MIC (S.epidermidis ATCC 14990) [µg/mL] | MIC (S.aureus DB00026) [µg/mL] | MIC (S.epidermis St 358) [µg/mL] | MIC (E.faecium 134 VRE) [µg/mL] | MIC (MRSA ATCC BAA 39) [µg/mL] | MIC (MRSE ATCC 35984) [µg/mL] | MIC [1] [µg/mL] | MIC (S.aureus2 (PVL + ve)) [µg/mL] | MIC [2] [µg/mL] | MIC [3] [µg/mL] | MIC (MRSA 562) [µg/mL] | MIC (MRSA 252 BAA 1720) [µg/mL] | MIC (E.faecium ATCC 35667) [µg/mL] | MIC (MRSA 0-2657) [µg/mL] | MIC (E.faecalis SP 346 VRE) [µg/mL] | MIC [4] [µg/mL] | MIC (E.faecium 6A VRE) [µg/mL] | MIC (E.coli 7632) [µg/mL] | MIC [5] [µg/mL] | MIC (MRSA DB 00026) [µg/mL] | also measured
C[Si]1(C)CCN(c2ccc(N3C[C@H](Cn4ccnn4)OC3=O)cc2F)CC1 [NDS-10060, (R)-5-((1H-1,2,3-triazol-1-yl)methyl)-3-(4-(4,4-dimethyl-1,4-azasilinan-1-yl)-3-fluorophenyl)oxazolidin-2-one] | 8 (≈ 20.5 µM) | 16 (≈ 41.1 µM) | 16 (≈ 41.1 µM) | 16 (≈ 41.1 µM) | 16 (≈ 41.1 µM) | 16 (≈ 41.1 µM) | 16 (≈ 41.1 µM) | 16 (≈ 41.1 µM) | 32 (≈ 82.2 µM) | 16 (≈ 41.1 µM) | 16 (≈ 41.1 µM) | 32 (≈ 82.2 µM) | 32 (≈ 82.2 µM) | 16 (≈ 41.1 µM) | 16 (≈ 41.1 µM) | 16 (≈ 41.1 µM) | 32 (≈ 82.2 µM) | 16 (≈ 41.1 µM) | 32 (≈ 82.2 µM) | 16 (≈ 41.1 µM) | MIC (S.epidermidis ATCC 12228): > 32 µg/mL; MIC (E.faecium ATCC 19434): 32 µg/mL (≈ 82.2 µM); MIC (MRSA ATCC 43300): 32 µg/mL (≈ 82.2 µM); MIC (E.faecium ATCC 49224): 32 µg/mL (≈ 82.2 µM); MIC (S.aureus ATCC 29213): 32 µg/mL (≈ 82.2 µM); MIC [6, 8]: 50 µg/mL (≈ 128 µM); MIC (E.faecalis ATCC 19433): 16 µg/mL (≈ 41.1 µM); MIC (E.faecium ATCC 3567): > 32 µg/mL; MIC (MRSE ATCC 35983): 32 µg/mL (≈ 82.2 µM); MIC [7]: 16 µg/mL (≈ 41.1 µM); MIC (E.faecium 06076 VRE): 32 µg/mL (≈ 82.2 µM); MIC (E.faecalis ATCC 29212): 8 µg/mL (≈ 20.5 µM)
CC(=O)NC[C@H]1CN(c2ccc(N3CCOCC3)c(F)c2)C(=O)O1 [Linezolid, (S)—N-({3-[3-fluoro-4-(morpholin-4-yl)phenyl]-2-oxo-1,3-oxazolidin-5-yl}methyl)acetamide, reference compound] | 2 (≈ 5.93 µM) | 1 (≈ 2.96 µM) | 2 (≈ 5.93 µM) | 2 (≈ 5.93 µM) | 2 (≈ 5.93 µM) | 1 (≈ 2.96 µM) | 2 (≈ 5.93 µM) | 2 (≈ 5.93 µM) | 2 (≈ 5.93 µM) | 2 (≈ 5.93 µM) | 2 (≈ 5.93 µM) | 1 (≈ 2.96 µM) | 4 (≈ 11.9 µM) | 1 (≈ 2.96 µM) | 2 (≈ 5.93 µM) | 2 (≈ 5.93 µM) | 2 (≈ 5.93 µM) | 1 (≈ 2.96 µM) | 2 (≈ 5.93 µM) | 2 (≈ 5.93 µM) | MIC (E.faecium ATCC 19434): 2 µg/mL (≈ 5.93 µM); MIC (MRSA ATCC 43300): 4 µg/mL (≈ 11.9 µM); MIC (E.faecium ATCC 49224): 2 µg/mL (≈ 5.93 µM); MIC (S.aureus ATCC 29213): 2 µg/mL (≈ 5.93 µM); MIC (E.faecalis ATCC 19433): 1 µg/mL (≈ 2.96 µM); MIC (E.faecium ATCC 3567): 2 µg/mL (≈ 5.93 µM); MIC (MRSE ATCC 35983): 1 µg/mL (≈ 2.96 µM); MIC [7]: 1 µg/mL (≈ 2.96 µM); MIC (E.faecium 06076 VRE): 2 µg/mL (≈ 5.93 µM); MIC (E.faecalis ATCC 29212): 0.5 µg/mL (≈ 1.48 µM)
CO[C@H]1/C=C/O[C@@]2(C)Oc3c(C)c(O)c4c(O)c(c(/C=N/N5CCN(C)CC5)c(O)c4c3C2=O)NC(=O)/C(C)=C\C=C\[C@H](C)[C@H](O)[C@@H](C)[C@@H](O)[C@@H](C)[C@H](OC(C)=O)[C@@H]1C [Rifampicin, reference compound] | – | – | – | – | – | – | – | – | – | – | – | – | – | – | – | – | – | – | – | – | MIC [6, 9]: 0.3 µg/mL (≈ 0.365 µM)
CC(=O)NCC1CN(c2ccc(N3CC[Si](C)(C)CC3)c(F)c2)C(=O)O1 (centres unmarked) [NDS-10026, N-((3-(4-(4,4-dimethyl-1,4-azasilinan-1-yl)-3-fluorophenyl)-2-oxooxazolidin-5-yl)methy)acetamide] | 16 (≈ 42.2 µM) | 32 (≈ 84.3 µM) | > 16 | 16 (≈ 42.2 µM) | 16 (≈ 42.2 µM) | 16 (≈ 42.2 µM) | > 16 | 32 (≈ 84.3 µM) | 16 (≈ 42.2 µM) | 32 (≈ 84.3 µM) | 16 (≈ 42.2 µM) | 32 (≈ 84.3 µM) | 8 (≈ 21.1 µM) | 16 (≈ 42.2 µM) | > 16 | > 16 | 16 (≈ 42.2 µM) | > 32 | > 16 | > 16 | MIC (S.epidermidis ATCC 12228): 16 µg/mL (≈ 42.2 µM); MIC (E.faecium ATCC 19434): > 16 µg/mL; MIC (MRSA ATCC 43300): 32 µg/mL (≈ 84.3 µM); MIC (E.faecium ATCC 49224): 8 µg/mL (≈ 21.1 µM); MIC (S.aureus ATCC 29213): 16 µg/mL (≈ 42.2 µM); MIC, Minimum Inhibitory Concentration (90%) [6, 9]: 50 µg/mL (≈ 132 µM); MIC (E.faecalis ATCC 19433): > 16 µg/mL; MIC (E.faecium ATCC 3567): > 16 µg/mL; MIC (MRSE ATCC 35983): 16 µg/mL (≈ 42.2 µM); MIC [7]: 16 µg/mL (≈ 42.2 µM); MIC (E.faecium 06076 VRE): > 16 µg/mL; MIC (E.faecalis ATCC 29212): > 16 µg/mL
C[Si]1(C)CCN(c2c(F)cc(N3C[C@H](Cn4ccnn4)OC3=O)cc2F)CC1 [NDS-10058, (R)-5-((1H-1,2,3-triazol-1-yl)methyl)-3-(4-(4,4-dimethyl-1,4-azasilinan-1-yl)-3,5-difluorophenyl)oxazolidin-2-one] | > 32 | > 32 | 32 (≈ 78.5 µM) | 4 (≈ 9.82 µM) | > 32 | 32 (≈ 78.5 µM) | > 32 | 32 (≈ 78.5 µM) | > 32 | 32 (≈ 78.5 µM) | > 32 | > 32 | > 32 | > 32 | 32 (≈ 78.5 µM) | 32 (≈ 78.5 µM) | 16 (≈ 39.3 µM) | 16 (≈ 39.3 µM) | 32 (≈ 78.5 µM) | > 32 | MIC (S.epidermidis ATCC 12228): > 32 µg/mL; MIC (E.faecium ATCC 19434): 32 µg/mL (≈ 78.5 µM); MIC (MRSA ATCC 43300): > 32 µg/mL; MIC (E.faecium ATCC 49224): > 32 µg/mL; MIC (S.aureus ATCC 29213): > 32 µg/mL; anti-tubercular activity (in words) ([6]; Mycobacterium tuberculosis H37Rv): good anti-tubercular activity; MIC [6, 8]: 12.5 µg/mL (≈ 30.7 µM); MIC (E.faecalis ATCC 19433): 32 µg/mL (≈ 78.5 µM); MIC (E.faecium ATCC 3567): > 32 µg/mL; MIC (MRSE ATCC 35983): 16 µg/mL (≈ 39.3 µM); MIC [7]: 32 µg/mL (≈ 78.5 µM); MIC (E.faecium 06076 VRE): 32 µg/mL (≈ 78.5 µM); MIC (E.faecalis ATCC 29212): 32 µg/mL (≈ 78.5 µM)
